Broadly, the IC50 is the point on the concentration scale where inhibition reaches its midpoint. In general, inhibition refers to the percentage by which the read-out fell short of the control.

The record followed here is ChEMBL document CHEMBL4130445, “TNF-α and IL-6 inhibitors: Conjugates of N-substituted indole and aminophenylmorpholin-3-one as anti-inflammatory agents” (Eur J Med Chem, 2017).

Data set [1] is described as follows: Cytotoxicity in mouse BV2 cells assessed as cell viability at 5 uM incubated for 48 hrs by MTT assay (reference value: 100%). It is filed as cell-based, BV-2. To be noted: read-out: Activity. In general terms: Tetrazolium assays rely on reduction of a dye to a coloured formazan, in cell work by metabolically active cells.
Data set [2] in a line: Cytotoxicity in mouse BV2 cells assessed as cell viability at 10 uM incubated for 48 hrs by MTT assay (reference value: 100%). Format: cell-based, BV-2. To be noted: read-out: Activity.
A short description of data set [3]: Cytotoxicity in mouse BV2 cells assessed as cell viability at 60 uM incubated for 48 hrs by MTT assay (reference value: 100%). Format: cell-based, BV-2. To be noted: read-out: Activity.
Data set [4] in a line: Cytotoxicity in mouse BV2 cells assessed as cell viability at 15 uM incubated for 48 hrs by MTT assay (reference value: 100%). To be noted: read-out: Activity. Format: cell-based, BV-2.
For data set [5], the system named is BV-2. Nature of the data set: Cytotoxicity in mouse BV2 cells assessed as reduction in cell viability incubated for 48 hrs by MTT assay. Format: cell-based. Particulars: BV-2, 48 h.
A short description of data set [6]: Cytotoxicity in mouse BV2 cells assessed as cell viability at 1 uM incubated for 48 hrs by MTT assay (reference value: 100%). Format: cell-based, BV-2. To be noted: read-out: Activity.
A short description of data set [7]: Cytotoxicity in mouse BV2 cells assessed as cell viability at 80 uM incubated for 48 hrs by MTT assay (reference value: 100%). Particulars: read-out: Activity. Format: cell-based, BV-2.
For data set [8], the system named is BV-2. Nature of the data set: Suppression of LPS-induced morphological changes in mouse BV2 cells at 10 uM pre-incubated before LPS stimulation by phase contrast microscopy. Format: functional, cell-based.
Data set [9] can be described thus: Cytotoxicity in mouse BV2 cells assessed as cell viability at 100 uM incubated for 48 hrs by MTT assay (reference value: 100%). Format: cell-based, BV-2. Particulars: read-out: Activity.
Data set [10] relates to BV-2. The data set is described as follows: Suppression of LPS-induced morphological changes in mouse BV2 cells at 1 to 20 uM pre-incubated before LPS stimulation by phase contrast microscopy. Format: functional, cell-based.
Data set [11] can be described thus: Cytotoxicity in mouse BV2 cells assessed as cell viability at 20 uM incubated for 48 hrs by MTT assay (reference value: 100%). Particulars: read-out: Activity. Format: cell-based, BV-2.
Data set [12] is described as follows: Cytotoxicity in mouse BV2 cells assessed as cell viability at 0.5 uM incubated for 48 hrs by MTT assay (reference value: 100%). It is filed as cell-based, BV-2. Particulars: read-out: Activity.
Data set [13] can be described thus: Cytotoxicity in mouse BV2 cells assessed as cell viability at 40 uM incubated for 48 hrs by MTT assay (reference value: 100%). Format: cell-based, BV-2. To be noted: read-out: Activity.
Data set [14] has as its target T1, Prostaglandin G/H synthase 2 (Homo sapiens) (UniProt P35354).
T1 sequence (whole entry): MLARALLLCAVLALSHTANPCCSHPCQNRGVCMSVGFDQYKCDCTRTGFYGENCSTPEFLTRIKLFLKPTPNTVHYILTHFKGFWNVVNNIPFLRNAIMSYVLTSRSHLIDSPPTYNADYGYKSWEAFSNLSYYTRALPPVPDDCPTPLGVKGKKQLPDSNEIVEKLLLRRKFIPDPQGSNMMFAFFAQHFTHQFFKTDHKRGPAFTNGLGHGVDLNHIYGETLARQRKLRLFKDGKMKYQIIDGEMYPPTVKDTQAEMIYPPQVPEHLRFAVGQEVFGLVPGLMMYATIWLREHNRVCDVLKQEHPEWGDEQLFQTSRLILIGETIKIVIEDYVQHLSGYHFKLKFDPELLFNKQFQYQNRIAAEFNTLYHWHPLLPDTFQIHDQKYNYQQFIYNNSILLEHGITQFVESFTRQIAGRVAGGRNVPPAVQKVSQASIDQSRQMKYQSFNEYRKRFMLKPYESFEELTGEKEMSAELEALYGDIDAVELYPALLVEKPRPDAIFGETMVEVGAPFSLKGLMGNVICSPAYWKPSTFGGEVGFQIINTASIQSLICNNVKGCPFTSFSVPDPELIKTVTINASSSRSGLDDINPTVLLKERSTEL
Nature of the data set: Inhibition of COX2 (unknown origin) by immunoassay.

Data set [15] concerns BV-2. The data set is described as follows: Inhibition of LPS-induced TNFalpha production in mouse BV2 cells at 100 uM pre-incubated before LPS stimulation by ELISA. It is filed as functional. For orientation: ELISA stands for enzyme-linked immunosorbent assay.
Data set [16] concerns BV-2. Nature of the data set: Inhibition of LPS-induced TNFalpha production in mouse BV2 cells at 60 uM pre-incubated before LPS stimulation by ELISA. Format: functional.

Activity calls are given as the source filed them. The calls are words filed in the database; no cut-off is given here.

On to `O=C1COCCN1c1ccc(/N=C\c2cn(Cc3ccc(F)cc3)c3ccccc23)cc1`, for which the viability at 48 h, 5 µM in data set [1] is 69.3%. Also, the viability at 48 h, 10 µM in [2] amounted to 90%. In addition, the viability at 48 h, 60 µM in [3] was determined as 67.4%. In addition, in data set [4], the viability at 48 h, 15 µM was 86.1%. Also, in data set [5], the IC50 is over 100 µM. Further, the viability at 48 h, 1 µM in data set [6] is 87.8%. Moreover, the viability at 48 h, 80 µM in [7] was determined as 59%. Also, the result in [8] and in data set [10] was inactive. In addition, the viability at 48 h, 100 µM in data set [9] worked out at 55.5%. In data set [11], the viability at 48 h, 20 µM amounted to 84.2%. Further, in data set [12], the viability at 48 h, 0.5 µM stood at 102%. For the same molecule, the viability at 48 h, 40 µM in data set [13] is 77.7%. Further, the inhibition entry in data set [14] is “inactive”.

Regarding `COc1ccc2c(c1)c(CC(=O)O)c(C)n2C(=O)c1ccc(Cl)cc1` [INDOMETHACIN], the inhibition at 100 µM in [15] was 50%.

`NC(=O)N1C(=O)/C(=C(\O)c2cccs2)c2cc(Cl)ccc21` [TENIDAP] registered an inhibition at 60 µM in [16] of 67%.
